A word on the inhibition: it is the percentage by which the read-out fell short of the control. A high value points to strong suppression.

Our source for the inhibition values is US20090118332A1, “Therapeutic Agents - 551” (AstraZeneca AB, priority 2006, published 2009).

In this test the target is T1, human Fatty Acid Synthase (Homo sapiens, UniProt P49327).
T1 construct: made in house
In words: Human FAS enzyme assay (decrease in NADPH fluorescence). Format: biochemical. The settings on record: % inhibition at a concentration of 100 μmolar. Here is the method: Human and Rat FAS Enzyme Assay.
Fatty acid synthase is an enzyme complex that harbours seven enzymatic activities catalysing the reductive synthesis of long chain fatty acids from acetyl CoA and malonyl CoA to palmitate. When acetyl CoA and malonyl CoA are forming palmitate NADPH is consumed forming NADP. Since NADPH is fluorescent but not NADP the reaction can be measured by analysing the decrease in fluorescence.
Compounds were added to a black 384 well plate (Matrix) in a volume of 5 μl consisting of 20% DMSO and 80% Tris buffer pH 7.5, at a top concentration of 1 mM. NADPH, 30 μl of 166.6 μM, formulated in assay buffer (0.1M Tris ph7.5, 0.1 mM EDTA, 1 mM glutathione, 0.05% BSA), was then added to all of the wells of the plate. Fatty acid synthase Human or rat enzyme (0.4 μg, produced in house), dissolved in 20 mM Tris/HCl pH 7.5, 5 mM BOG, 1 mM TCEP, 10% glycerol, 1 mM EDTA, 150 mM NaCl, was then added to the plate in a volume of 10 μl. Enzyme was added to all but the last two columns of the plate, to which, 10 μl of assay buffer was added (0.1M Tris ph7.5, 0.1 mM EDTA, 1 mM glutathione, 0.05% BSA) to provide a no enzyme assay control. Following a 15-minute incubation period, at room temperature, the plates were read on an Envision plate reader using 340 nm excitation and 460 nm emission filters. This served as a time zero background read. Substrates (an equal mix of both malonyl and acetyl CoA) were then added to the plates in a total volume of 5 μl. The concentrations of malonyl and acetyl CoA in the mixture were 500 μM and 150 μM respectively. Both were prepared as 10 mM stock solutions in distilled water and were subsequently diluted to working concentrations in assay buffer. Plates were then incubated for a further 60 minutes, at room temperature, before being read again on the Envision reader using the same parameters as previously used. The data was analysed by subtracting the background time zero data from that generated following the final 60 minute incubate and the percent inhibition compared to the maximum and minimum assay controls was determined. Sigmoid curves were fitted using Origin 7.5 Client software and IC50 values were determined.

T1 sequence (P49327 whole entry): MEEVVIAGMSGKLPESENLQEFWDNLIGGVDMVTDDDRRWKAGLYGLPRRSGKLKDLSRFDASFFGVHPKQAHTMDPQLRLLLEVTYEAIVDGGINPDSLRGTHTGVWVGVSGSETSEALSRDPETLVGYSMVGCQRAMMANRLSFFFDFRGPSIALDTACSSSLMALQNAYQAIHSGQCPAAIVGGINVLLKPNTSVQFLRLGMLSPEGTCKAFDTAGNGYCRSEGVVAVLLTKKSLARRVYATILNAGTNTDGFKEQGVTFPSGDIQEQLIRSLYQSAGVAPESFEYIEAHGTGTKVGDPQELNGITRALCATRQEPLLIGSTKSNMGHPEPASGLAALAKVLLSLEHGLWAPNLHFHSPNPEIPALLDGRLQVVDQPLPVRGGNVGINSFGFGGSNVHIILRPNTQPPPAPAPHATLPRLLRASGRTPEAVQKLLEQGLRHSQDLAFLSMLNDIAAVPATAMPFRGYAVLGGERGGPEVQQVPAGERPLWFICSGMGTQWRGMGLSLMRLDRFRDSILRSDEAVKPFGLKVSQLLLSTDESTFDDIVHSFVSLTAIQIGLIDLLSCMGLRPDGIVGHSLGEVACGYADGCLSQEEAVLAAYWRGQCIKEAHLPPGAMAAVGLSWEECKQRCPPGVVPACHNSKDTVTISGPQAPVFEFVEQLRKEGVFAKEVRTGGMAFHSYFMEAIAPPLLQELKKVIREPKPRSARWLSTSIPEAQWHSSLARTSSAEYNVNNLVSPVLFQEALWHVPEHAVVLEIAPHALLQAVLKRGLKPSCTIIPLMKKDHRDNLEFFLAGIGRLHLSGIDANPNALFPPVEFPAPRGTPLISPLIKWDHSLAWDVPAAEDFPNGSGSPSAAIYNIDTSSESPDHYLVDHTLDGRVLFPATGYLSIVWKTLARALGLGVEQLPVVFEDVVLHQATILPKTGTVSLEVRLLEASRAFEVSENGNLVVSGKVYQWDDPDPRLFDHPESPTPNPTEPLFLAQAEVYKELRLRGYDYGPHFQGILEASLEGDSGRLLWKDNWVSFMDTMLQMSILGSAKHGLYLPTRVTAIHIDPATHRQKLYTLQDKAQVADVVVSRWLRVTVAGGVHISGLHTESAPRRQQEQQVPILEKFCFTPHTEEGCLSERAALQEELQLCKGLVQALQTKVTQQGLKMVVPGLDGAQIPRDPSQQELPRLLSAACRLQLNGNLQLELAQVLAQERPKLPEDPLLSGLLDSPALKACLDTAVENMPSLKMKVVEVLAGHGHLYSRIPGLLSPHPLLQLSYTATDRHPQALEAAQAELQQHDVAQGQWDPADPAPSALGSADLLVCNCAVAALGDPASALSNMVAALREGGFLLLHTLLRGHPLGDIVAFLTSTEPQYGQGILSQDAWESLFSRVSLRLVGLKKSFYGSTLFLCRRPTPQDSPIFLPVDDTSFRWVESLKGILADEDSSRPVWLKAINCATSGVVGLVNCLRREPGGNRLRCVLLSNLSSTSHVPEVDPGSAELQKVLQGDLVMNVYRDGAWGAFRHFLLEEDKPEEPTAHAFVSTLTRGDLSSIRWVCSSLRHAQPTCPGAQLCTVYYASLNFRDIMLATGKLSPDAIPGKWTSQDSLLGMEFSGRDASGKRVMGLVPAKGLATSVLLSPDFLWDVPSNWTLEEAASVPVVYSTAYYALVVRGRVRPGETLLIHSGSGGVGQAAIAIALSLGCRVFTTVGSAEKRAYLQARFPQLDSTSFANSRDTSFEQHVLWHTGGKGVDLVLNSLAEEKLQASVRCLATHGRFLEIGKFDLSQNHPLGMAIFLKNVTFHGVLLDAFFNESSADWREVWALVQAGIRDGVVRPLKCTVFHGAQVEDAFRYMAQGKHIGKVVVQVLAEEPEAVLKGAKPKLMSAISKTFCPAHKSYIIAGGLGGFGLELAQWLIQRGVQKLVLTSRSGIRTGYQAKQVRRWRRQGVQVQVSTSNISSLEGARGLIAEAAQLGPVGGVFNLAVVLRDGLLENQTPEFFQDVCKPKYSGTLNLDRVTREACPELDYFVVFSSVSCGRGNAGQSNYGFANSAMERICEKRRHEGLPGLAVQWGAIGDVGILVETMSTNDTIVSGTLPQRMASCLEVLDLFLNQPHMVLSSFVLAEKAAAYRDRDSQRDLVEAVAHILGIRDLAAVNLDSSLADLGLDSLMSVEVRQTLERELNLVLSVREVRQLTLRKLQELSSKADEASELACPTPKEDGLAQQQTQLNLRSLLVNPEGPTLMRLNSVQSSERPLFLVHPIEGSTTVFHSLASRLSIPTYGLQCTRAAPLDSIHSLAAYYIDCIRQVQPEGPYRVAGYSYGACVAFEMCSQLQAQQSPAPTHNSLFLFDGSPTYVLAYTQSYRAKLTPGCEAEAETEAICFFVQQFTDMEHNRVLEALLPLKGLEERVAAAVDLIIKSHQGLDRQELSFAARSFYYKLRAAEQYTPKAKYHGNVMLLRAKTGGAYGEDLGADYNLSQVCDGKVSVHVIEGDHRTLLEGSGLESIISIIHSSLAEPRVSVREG

The compound `Cc1cc(C)c(C(=O)N2CCC(c3ccc(C#N)cc3)CC2)cc1NC(=O)NC(C)C` [Example 13, 3-[5-[4-(4-cyanophenyl)piperidine-1-carbonyl]-2,4-dimethyl-phenyl]-1-propan-2-yl-urea] registered an inhibition at 100 µM of 84.8%.
In the case of `N#Cc1ccc(C2CCN(C(=O)c3cccc(NC(=O)NCc4ccccc4)c3)CC2)cc1` [Example 14, 1-benzyl-3-[3-[4-(4-cyanophenyl)piperidine-1-carbonyl]phenyl]urea] it was 90.1%.
Compound `Cc1ccc(C(=O)N2CCC(c3ccc(C#N)cc3)CC2)cc1NC(=O)NC1CCCC1` [Example 15, 1-[5-[4-(4-cyanophenyl)piperidine-1-carbonyl]-2-methyl-phenyl]-3-cyclopentyl-urea] came in with an inhibition at 100 µM of 91.3%.
As to `Cc1ccc(C(=O)N2CCC(c3ccc(C#N)cc3)CC2)cc1NC(=O)NCCc1ccccc1` [Example 16, 1-[5-[4-(4-cyanophenyl)piperidine-1-carbonyl]-2-methyl-phenyl]-3-phenethyl-urea], the inhibition at 100 µM came to 98.3%.
Turning to `Cc1ccc(C(=O)N2CCC(c3ccc(C#N)cc3)CC2)cc1NC(=O)NCC1CCOCC1` [Example 17, 1-[5-[4-(4-cyanophenyl)piperidine-1-carbonyl]-2-methyl-phenyl]-3-(oxan-4-ylmethyl)urea], the inhibition at 100 µM stood at 90.1%.
As for `CNC(=O)Nc1ccc(C)c(C(=O)N2CCC(c3ccc(C#N)cc3)CC2)c1` [Example 18, 3-[3-[4-(4-cyanophenyl)piperidine-1-carbonyl]-4-methyl-phenyl]-1-methyl-urea], the figure is 75.9%.
As for `CCNC(=O)Nc1ccc(C)c(C(=O)N2CCC(c3ccc(C#N)cc3)CC2)c1` [Example 19, 3-[3-[4-(4-cyanophenyl)piperidine-1-carbonyl]-4-methyl-phenyl]-1-ethyl-urea], the figure is 79.9%; as for `CCCCNC(=O)Nc1ccc(C)c(C(=O)N2CCC(c3ccc(C#N)cc3)CC2)c1` [Example 20, 1-butyl-3-[3-[4-(4-cyanophenyl)piperidine-1-carbonyl]-4-methyl-phenyl]urea], 79.2%; as for `Cc1ccc(NC(=O)NC2CCCC2)cc1C(=O)N1CCC(c2ccc(C#N)cc2)CC1` [Example 21, 1-[3-[4-(4-cyanophenyl)piperidine-1-carbonyl]-4-methyl-phenyl]-3-cyclopentyl-urea], 78.8%.
In the case of `CC(C)NC(=O)Nc1cc(C(=O)N2CCC(c3ccc(C#N)cc3)CC2)ccc1C#N` [Example 22, 3-[2-cyano-5-[4-(4-cyanophenyl)piperidine-1-carbonyl]phenyl]-1-propan-2-yl-urea] it was 86.8%; in that of `Cc1ccc(NC(=O)NCc2ccccc2F)cc1C(=O)N1CCC(c2ccc(C#N)cc2)CC1` [Example 23, 1-[3-[4-(4-cyanophenyl)piperidine-1-carbonyl]-4-methyl-phenyl]-3-[(2-fluorophenyl)methyl]urea], 77%; in that of `Cc1ccc(NC(=O)N(C)Cc2ccccc2)cc1C(=O)N1CCC(c2ccc(C#N)cc2)CC1` [Example 24, 1-benzyl-3-[3-[4-(4-cyanophenyl)piperidine-1-carbonyl]-4-methyl-phenyl]-1-methyl-urea], 78.1%.
The compound `Cc1ccc(NC(=O)NCc2cccnc2)cc1C(=O)N1CCC(c2ccc(C#N)cc2)CC1` [Example 25, 1-[3-[4-(4-cyanophenyl)piperidine-1-carbonyl]-4-methyl-phenyl]-3-(pyridin-3-ylmethyl)urea] registered an inhibition at 100 µM of 79.7%.
Compound `Cc1ccc(NC(=O)NCCc2ccccc2)cc1C(=O)N1CCC(c2ccc(C#N)cc2)CC1` [Example 26, 1-[3-[4-(4-cyanophenyl)piperidine-1-carbonyl]-4-methyl-phenyl]-3-phenethyl-urea] came in with an inhibition at 100 µM of 82.9%.
In the case of `Cc1ccc(NC(=O)NCC2CCOCC2)cc1C(=O)N1CCC(c2ccc(C#N)cc2)CC1` [Example 27, 1-[3-[4-(4-cyanophenyl)piperidine-1-carbonyl]-4-methyl-phenyl]-3-(oxan-4-ylmethyl)urea] it was 80.7%; in that of `Cc1ccc(NC(=O)N2CCOCC2)cc1C(=O)N1CCC(c2ccc(C#N)cc2)CC1` [Example 28, N-[3-[4-(4-cyanophenyl)piperidine-1-carbonyl]-4-methyl-phenyl]morpholine-4-carboxamide], 83.1%.
In the case of `Cc1ccc(NC(=O)N2CCCC2)cc1C(=O)N1CCC(c2ccc(C#N)cc2)CC1` [Example 29, N-[3-[4-(4-cyanophenyl)piperidine-1-carbonyl]-4-methyl-phenyl]pyrrolidine-1-carboxamide] it was 79.6%; in that of `Cc1ccc(C(=O)N2CCC(c3ccc(C#N)cc3)CC2)cc1NC(=O)NC(C)(C)C` [Example 31, 1-[5-[4-(4-cyanophenyl)piperidine-1-carbonyl]-2-methyl-phenyl]-3-tert-butyl-urea], 83.3%; in that of `Cc1ccc(C(=O)N2CCC(c3ccc(C#N)cc3)CC2)cc1NC(=O)NCc1ccccc1` [Example 32, 3-benzyl-1-[5-[4-(4-cyanophenyl)piperidine-1-carbonyl]-2-methyl-phenyl]urea], 95.5%.
`Cc1ccc(C(=O)N2CCC(c3ccc(C#N)cc3)CC2)cc1NC(=O)NCc1ccc(C#N)cc1` [Example 33, 3-[(4-cyanophenyl)methyl]-1-[5-[4-(4-cyanophenyl)piperidine-1-carbonyl]-2-methyl-phenyl]urea] gave an inhibition at 100 µM of 91.8%.
As for `Cc1ccc(C(=O)N2CCC(c3ccc(C#N)cc3)CC2)cc1NC(=O)NCc1ccccc1F` [Example 34, 1-[5-[4-(4-cyanophenyl)piperidine-1-carbonyl]-2-methyl-phenyl]-3-[(2-fluorophenyl)methyl]urea], the inhibition at 100 µM was 86.5%.
In the case of `Cc1ccc(C(=O)N2CCC(c3ccc(C#N)cc3)CC2)cc1NC(=O)NCc1cccnc1` [Example 35, 1-[5-[4-(4-cyanophenyl)piperidine-1-carbonyl]-2-methyl-phenyl]-3-(pyridin-3-ylmethyl)urea] it was 91.6%; in that of `Cc1ccc(C(=O)N2CCC(c3ccc(C#N)cc3)CC2)cc1NC(=O)NCc1ccncc1` [Example 36, 1-[5-[4-(4-cyanophenyl)piperidine-1-carbonyl]-2-methyl-phenyl]-3-(pyridin-4-ylmethyl)urea], 93.8%; in that of `Cc1ccc(NC(=O)N[C@H](C)c2ccccc2)cc1C(=O)N1CCC(c2ccc(C#N)cc2)CC1` [Example 37, 3-[3-[4-(4-cyanophenyl)piperidine-1-carbonyl]-4-methyl-phenyl]-1-[(1R)-1-phenylethyl]urea], 74.3%.
For the compound `Cc1ccc(NC(=O)N[C@@H](C)c2ccccc2)cc1C(=O)N1CCC(c2ccc(C#N)cc2)CC1` [Example 38, 3-[3-[4-(4-cyanophenyl)piperidine-1-carbonyl]-4-methyl-phenyl]-1-[(1S)-1-phenylethyl]urea], at 100 µM the inhibition was 76.6%.
For the compound `Cc1ccc(C(=O)N2CCC(O)(c3ccc(Br)cc3)CC2)cc1NC(=O)NC(C)C` [Example 39, 1-[5-[4-(4-bromophenyl)-4-hydroxy-piperidine-1-carbonyl]-2-methyl-phenyl]-3-propan-2-yl-urea], at 100 µM the inhibition was 79.1%.
In the case of `Cc1ccc(C(=O)N2CCC(O)(c3ccc(Br)cc3)CC2)cc1NC(=O)NCc1ccccc1` [Example 40, 3-benzyl-1-[5-[4-(4-bromophenyl)-4-hydroxy-piperidine-1-carbonyl]-2-methyl-phenyl]urea] it was 71.5%.
In the case of `Cc1ccc(C(=O)N2CCC(c3ccc(C#N)cc3)CC2)cc1NC(=O)NC1CCN(Cc2ccccc2)CC1` [Example 41, 3-(1-benzyl-4-piperidyl)-1-[5-[4-(4-cyanophenyl)piperidine-1-carbonyl]-2-methyl-phenyl]urea], testing at 100 µM gave an inhibition of 94.4%.
`Cc1ccc(C(=O)N2CCC(c3ccc(C#N)cc3)CC2)cc1NC(=O)NCC(C)C` [Example 42, 1-[5-[4-(4-cyanophenyl)piperidine-1-carbonyl]-2-methyl-phenyl]-3-(2-methylpropyl)urea] registered an inhibition at 100 µM of 83.8%.
For the compound `C#CCNC(=O)Nc1cc(C(=O)N2CCC(c3ccc(C#N)cc3)CC2)ccc1C` [Example 43, 1-[5-[4-(4-cyanophenyl)piperidine-1-carbonyl]-2-methyl-phenyl]-3-prop-2-ynyl-urea], at 100 µM the inhibition was 88.3%.
Compound `COc1cc(CNC(=O)Nc2cc(C(=O)N3CCC(c4ccc(C#N)cc4)CC3)ccc2C)cc(OC)c1OC` [Example 44, 1-[5-[4-(4-cyanophenyl)piperidine-1-carbonyl]-2-methyl-phenyl]-3-[(3,4,5-trimethoxyphenyl)methyl]urea] came in with an inhibition at 100 µM of 87.9%.
